Measured values published in patent publication US20050282743A1, “Molecular interactions in cells” (Arbor Vita Corporation, priority 2001, published 2005).
Read-outs that look alike come from different tables or passages of the source. Peptide text beside a SMILES is read from it. * marks the point of attachment. Biotin = O=C1N[C@H]2[C@H](CS[C@H]2CCCCC(=O)*)N1

Biological target: T1, PDZ-domain polypeptide (GST/PDZ fusion protein) (Homo sapiens, UniProt Q12923)
T1 construct: made in house; host or cells: E. coli (DH5alpha, BL21 or JM109)
Experiment: Apparent affinity (Kd) by titration of PL peptide in the G assay
Type: binding
In short: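 A fixed concentration of GST/PDZ fusion protein, 5 ug/ml by default, was mixed in solution with increasing labeled PL peptide (e.g. 0.1 uM-1 mM). Reaction times ranged from 10 minutes to 2 days at 4-37° C. Complexes were separated from free peptide and detected via the label as in the G assay, apparent affinity coming from the saturating concentration.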

[1] = PDZ PTPL-1, PDZ Domain 2, read-out: Peptide Optimal Conc (Kd by titration of the PL peptide)

T1 sequence (Q12923 whole entry, the tested form may be a part): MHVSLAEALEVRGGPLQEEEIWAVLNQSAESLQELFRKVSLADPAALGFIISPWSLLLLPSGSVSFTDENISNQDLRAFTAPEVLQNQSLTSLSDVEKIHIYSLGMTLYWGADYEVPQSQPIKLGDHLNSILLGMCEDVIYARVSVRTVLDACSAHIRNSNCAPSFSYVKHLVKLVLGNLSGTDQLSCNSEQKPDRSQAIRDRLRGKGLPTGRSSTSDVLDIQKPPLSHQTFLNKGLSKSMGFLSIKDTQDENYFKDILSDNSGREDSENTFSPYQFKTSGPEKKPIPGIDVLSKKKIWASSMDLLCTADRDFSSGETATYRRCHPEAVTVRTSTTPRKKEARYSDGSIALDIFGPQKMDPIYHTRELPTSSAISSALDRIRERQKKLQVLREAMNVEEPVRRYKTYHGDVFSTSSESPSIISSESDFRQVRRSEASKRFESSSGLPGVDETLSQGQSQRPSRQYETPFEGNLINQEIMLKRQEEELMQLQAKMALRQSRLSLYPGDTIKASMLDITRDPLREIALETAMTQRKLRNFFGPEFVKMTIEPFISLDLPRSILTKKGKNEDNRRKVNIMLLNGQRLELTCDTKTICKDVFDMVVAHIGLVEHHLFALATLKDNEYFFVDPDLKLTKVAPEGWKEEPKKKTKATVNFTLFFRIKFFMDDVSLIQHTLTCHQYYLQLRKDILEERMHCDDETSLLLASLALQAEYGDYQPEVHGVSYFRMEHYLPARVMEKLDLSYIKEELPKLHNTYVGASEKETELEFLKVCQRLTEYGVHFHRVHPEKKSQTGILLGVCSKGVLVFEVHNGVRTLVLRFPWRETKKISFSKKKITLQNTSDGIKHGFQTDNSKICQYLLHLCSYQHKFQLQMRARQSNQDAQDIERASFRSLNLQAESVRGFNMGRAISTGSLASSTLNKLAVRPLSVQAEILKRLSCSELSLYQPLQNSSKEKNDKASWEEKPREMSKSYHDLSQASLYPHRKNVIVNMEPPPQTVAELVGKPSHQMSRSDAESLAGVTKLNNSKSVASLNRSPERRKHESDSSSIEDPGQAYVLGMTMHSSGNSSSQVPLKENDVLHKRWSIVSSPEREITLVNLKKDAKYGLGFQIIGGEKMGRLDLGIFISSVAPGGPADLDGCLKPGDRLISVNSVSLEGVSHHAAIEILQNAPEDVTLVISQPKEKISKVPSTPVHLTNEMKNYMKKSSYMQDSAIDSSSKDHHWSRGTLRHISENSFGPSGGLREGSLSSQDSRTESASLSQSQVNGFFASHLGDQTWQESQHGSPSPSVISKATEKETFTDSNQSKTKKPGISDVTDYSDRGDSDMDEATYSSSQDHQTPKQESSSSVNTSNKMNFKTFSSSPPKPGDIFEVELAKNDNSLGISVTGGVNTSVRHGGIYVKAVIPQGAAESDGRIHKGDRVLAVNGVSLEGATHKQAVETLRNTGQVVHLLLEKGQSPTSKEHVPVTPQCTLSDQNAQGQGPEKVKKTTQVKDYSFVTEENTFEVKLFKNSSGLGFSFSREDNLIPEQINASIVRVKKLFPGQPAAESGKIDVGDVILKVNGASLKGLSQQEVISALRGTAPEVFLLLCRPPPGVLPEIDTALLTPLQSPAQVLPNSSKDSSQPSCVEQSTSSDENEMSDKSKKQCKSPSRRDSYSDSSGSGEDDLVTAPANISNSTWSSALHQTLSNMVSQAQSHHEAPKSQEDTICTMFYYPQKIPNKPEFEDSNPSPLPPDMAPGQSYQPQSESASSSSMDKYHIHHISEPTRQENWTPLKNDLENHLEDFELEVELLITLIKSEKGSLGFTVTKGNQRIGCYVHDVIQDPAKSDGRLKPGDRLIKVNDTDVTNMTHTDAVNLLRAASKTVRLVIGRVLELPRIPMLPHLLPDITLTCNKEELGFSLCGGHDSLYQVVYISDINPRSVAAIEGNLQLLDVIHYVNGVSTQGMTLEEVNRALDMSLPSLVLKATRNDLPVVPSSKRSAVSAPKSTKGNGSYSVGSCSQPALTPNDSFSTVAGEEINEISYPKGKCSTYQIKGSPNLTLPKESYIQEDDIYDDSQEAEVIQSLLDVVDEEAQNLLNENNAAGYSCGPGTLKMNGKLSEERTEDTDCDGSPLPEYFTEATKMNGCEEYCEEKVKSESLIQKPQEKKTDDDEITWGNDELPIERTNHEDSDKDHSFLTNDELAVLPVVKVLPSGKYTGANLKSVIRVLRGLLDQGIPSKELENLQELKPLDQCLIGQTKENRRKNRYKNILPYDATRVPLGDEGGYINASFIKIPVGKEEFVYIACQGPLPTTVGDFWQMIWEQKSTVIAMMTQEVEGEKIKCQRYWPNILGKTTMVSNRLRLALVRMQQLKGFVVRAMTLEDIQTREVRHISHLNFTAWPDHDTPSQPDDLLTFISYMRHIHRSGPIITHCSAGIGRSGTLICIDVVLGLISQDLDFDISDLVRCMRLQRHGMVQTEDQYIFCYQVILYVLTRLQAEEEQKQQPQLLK

Kd (PDZ PTPL-1, PDZ Domain 4, titration of the PL peptide, read-out: Peptide Optimal Conc (Kd, dissociation constant)) | SMILES | Kd [1]
– | CC(C)C[C@H](NC(=O)[C@H](CC(C)C)NC(=O)[C@@H](NC(=O)[C@H](CC(=O)O)NC(=O)CCCC[C@@H]1SC[C@@H]2NC(=O)N[C@@H]21)[C@@H](C)O)C(=O)N[C@@H](CC(C)C)C(=O)N[C@H](C(=O)N[C@@H](CCC(=O)O)C(=O)N[C@@H](CC(N)=O)C(=O)N[C@@H](CCC(=O)O)C(=O)NCC(=O)N[C@@H](CC(=O)O)C(=O)N[C@@H](CCCCN)C(=O)N[C@H](C(=O)N[C@@H](CCC(=O)O)C(=O)N[C@@H](CCC(=O)O)C(=O)N[C@@H](CCC(N)=O)C(=O)N[C@H](C(=O)N[C@@H](CO)C(=O)N[C@@H](Cc1ccc(O)cc1)C(=O)N[C@H](C(=O)O)C(C)C)C(C)C)[C@@H](C)O)[C@@H](C)O [5H2B_HUMAN] (Biotin-DTLLLTENEGDKTEEQVSYV-OH; C-terminus assumed) | 200 nM
– | CC[C@H](C)[C@H](NC(=O)[C@H](CCC(N)=O)NC(=O)[C@@H](NC(=O)[C@H](Cc1c[nH]cn1)NC(=O)[C@H](CCC(N)=O)NC(=O)[C@H](CC(=O)O)NC(=O)[C@H](CCC(=O)O)NC(=O)[C@H](CC(=O)O)NC(=O)[C@H](Cc1ccccc1)NC(=O)[C@@H]1CCCN1C(=O)[C@H](CCC(=O)O)NC(=O)[C@H](CC(N)=O)NC(=O)[C@H](CCC(=O)O)NC(=O)[C@@H]1CCCN1C(=O)[C@H](CC(=O)O)NC(=O)[C@H](CO)NC(=O)[C@H](CC(=O)O)NC(=O)CCCC[C@@H]1SC[C@@H]2NC(=O)N[C@@H]21)[C@@H](C)O)C(=O)N[C@H](C(=O)N[C@@H](CCCCN)C(=O)N[C@H](C(=O)O)C(C)C)[C@@H](C)O [PTEN] | 300 nM
8000 nM | CC[C@H](C)[C@H](NC(=O)[C@H](Cc1ccc(O)cc1)NC(=O)[C@H](CC(C)C)NC(=O)[C@H](CCC(N)=O)NC(=O)[C@H](Cc1c[nH]cn1)NC(=O)[C@H](CO)NC(=O)[C@H](C)NC(=O)[C@H](CC(C)C)NC(=O)[C@@H](NC(=O)[C@H](CC(=O)O)NC(=O)[C@H](CCSC)NC(=O)[C@H](Cc1ccccc1)NC(=O)[C@@H]1CCCN1C(=O)[C@H](CCCNC(=N)N)NC(=O)[C@@H](NC(=O)[C@H](CC(C)C)NC(=O)[C@H](CC(N)=O)NC(=O)[C@H](CC(=O)O)NC(=O)[C@@H](NC(=O)[C@H](CO)NC(=O)CCCC[C@@H]1SC[C@@H]2NC(=O)N[C@@H]21)[C@@H](C)O)C(C)C)[C@@H](C)O)C(=O)O [presenilin-2] (Biotin-STDNLVRPFMDTLASHQLYI-OH; C-terminus assumed) | –
